From PubChem BioAssay (NCI)
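Growth conditions: 96-well plates. Treatment: test compound, 48 hours, 5 concentrations. Analysis: linear interpolation between bracketing concentrations; unreached endpoints set to highest concentration. At the GI50, growth is halved. At the TGI there is no net growth.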

Columns and labels:
Assay in all cases: growth of human tumour cells (NCI), 48 h
SNB-78 CNS = test system: SNB-78 CNS
SW-620 colon = test system: SW-620 colon
DLD-1 colon = test system: DLD-1 colon
DMS 273 small cell lung = test system: DMS 273 small cell lung
M19-MEL melanoma = test system: M19-MEL melanoma
MOLT-4 leukemia = test system: MOLT-4 leukemia
TK-10 renal = test system: TK-10 renal
IGROV1 ovarian = test system: IGROV1 ovarian
HOP-18 NSCLC = test system: HOP-18 NSCLC
SK-MEL-2 melanoma = test system: SK-MEL-2 melanoma
LXFL 529 NSCLC = test system: LXFL 529 NSCLC
XF 498 CNS = test system: XF 498 CNS
T-47D breast = test system: T-47D breast

SMILES	TGI (SNB-78 CNS)	TGI (SW-620 colon)	TGI (DLD-1 colon)	TGI (DMS 273 small cell lung)	TGI (M19-MEL melanoma)	TGI (MOLT-4 leukemia)	TGI (TK-10 renal)	TGI (IGROV1 ovarian)	TGI (HOP-18 NSCLC)	TGI (SK-MEL-2 melanoma)	TGI (LXFL 529 NSCLC)	TGI (XF 498 CNS)	GI50 (SW-620 colon)	GI50 (SK-MEL-2 melanoma)	GI50 (MOLT-4 leukemia)	GI50 (TK-10 renal)	GI50 (T-47D breast)	TGI (T-47D breast)	GI50 (IGROV1 ovarian)
COc1ccc2ccccc2c1C1OC(=O)c2ccccc21 (stereo not drawn)	> 100 µM	> 100 µM	> 100 µM	> 100 µM	> 100 µM	> 100 µM	> 100 µM	> 100 µM	> 100 µM										
C1=C2/CC[C@H](Sc3ccccc3)[C@H]2C2(CCCCC/1)OCCO2	> 100 µM	> 100 µM	> 100 µM	> 100 µM	67 µM		> 100 µM	> 100 µM	> 100 µM	33.2 µM	> 100 µM								
COc1ccc(C(C#N)Cc2cc(OC)c(OC)c(OC)c2)cc1 (stereo not drawn)	> 100 µM	> 100 µM	> 100 µM	> 100 µM	> 100 µM	> 100 µM	> 100 µM	> 100 µM	> 100 µM		> 100 µM								
Cc1ccc(C)c(NC(=O)CC/C(=N\NC(=O)c2c(O)ccc3ccccc23)C(C)C(=O)c2ccc(O)cc2)c1 (stereo not drawn)	> 100 µM	> 100 µM	> 100 µM	> 100 µM		> 100 µM	> 100 µM	> 100 µM	83.8 µM	> 100 µM	> 100 µM	91.9 µM							
COC(=O)C1=C(c2cc(OC)c(OC)c(OC)c2)OC(c2ccc(OC)c(OC)c2)C1 (stereo not drawn)		87 µM	> 100 µM	> 100 µM	> 100 µM	51.2 µM	> 100 µM	> 100 µM	> 100 µM	> 100 µM	> 100 µM	> 100 µM							
O=C(NN1C(=O)CSC12CCCC2)c1[nH]c2ccc(Br)cc2c1-c1ccccc1		> 100 µM				90.4 µM	> 100 µM	> 100 µM		> 100 µM			74.6 µM	69 µM	21.9 µM	80.9 µM	39.1 µM	> 100 µM	21.8 µM
CN(C(=O)c1ccco1)C(=S)N1CCN(c2ccccc2)CC1		> 100 µM	> 100 µM	> 100 µM	> 100 µM	> 100 µM	> 100 µM	> 100 µM	> 100 µM	> 100 µM	> 100 µM	> 100 µM							
CC#CC(=O)SCCNC(=O)CC		> 10 µM				> 8.86 µM	> 10 µM	> 10 µM		> 10 µM								> 10 µM	
C=C1C(=O)OC2/C=C(/C)C(OC(C)=O)CC(O)/C(C)=C\C(OC(=O)/C(C)=C\C)C12 (stereo not drawn)		67.6 µM				> 100 µM	> 100 µM	> 100 µM		> 100 µM								> 100 µM	
C1CN(SSN2CCOCC2)CCO1		42 µM				> 100 µM	> 100 µM	> 100 µM		> 100 µM			19.4 µM	> 100 µM	47.3 µM	> 100 µM	45 µM	> 100 µM	70.7 µM
